Results taken from patent publication US8835446B2, “Quinazoline derivatives and pharmaceutical compositions thereof” (Nippon Shinyaku Co., Ltd., priority 2005, dated 2014).
Where two headings read alike, the source gives them in different places.

Assays:
Rabbits = settings: rabbit, in vivo
Source text: Then, erythema and edema formation at the application site was observed. […] The mean value of the sum of erythema and edema scores was used as a simple primary skin irritation index. […]

Mice [1] = assay: Effect on scratching behavior induced by serotonin application in mice; format: in vivo, mouse; settings: counted for 15 minutes
Method: To the cervical and dorsal area of male ICR mice (n=3 to 6) at the age of 4 to 6 weeks, 100 μl of a solution obtained by dissolving serotonin hydrochloride in ethanol at 0.1% (hereinafter referred to as serotonin) was applied, and the number of scratching behavior at the application site with the hind legs occurring immediately after the application was counted for 15 minutes after administration with a counter. Administration of a test compound was carried out by skin application, intravenous administration or oral administration. In the case of skin application, the test compound that was dissolved in ethanol was applied in an amount of 100 μl concurrently with serotonin. In the case of intravenous administration, the test compound that was dissolved in physiological saline was administered at a dose of 10 ml/kg at 5 minutes prior to the serotonin application. In the case of oral administration, the test compound that was dissolved in distilled water was administered at a dose of 10 ml/kg at 20 minutes prior to the serotonin application. The control group of each administration route was given the respective solvent, and the values of scratching behavior were compared between the control group and the test compound group.
The results obtained by skin application of the test compound are shown in Table 3; the results obtained by intravenous administration of the test compound are shown in Table 4; and the results obtained by oral administration of the test compound are shown in Table 5.

Mice [2] = assay: Acute toxicity test in mice; format: in vivo, mouse; settings: intravenous, observed for 2 hours
Source text: Male ICR mice at the age of 4 to 6 weeks were used.

[3] = skin application, concentration 0.1% in ethanol, concurrently with serotonin
[4] = intravenous administration, dose 3 mg/kg, 5 minutes prior to serotonin

In the case of Cc1ccc2nc(C(=O)NCC(C)(C)C)nc(N[C@H]3CCCC[C@H]3NC(=N)N)c2c1.Cl.Cl [Comparative control B, 4-[((1S,2R)-2-{[amino(imino)methyl]amino}cyclohexyl)amino]-6-methyl-N-neopentyl quinazoline-2-carboxamide dihydrochloride, reference compound], the “Simple primary skin irritation index” value (Rabbits) is reported as 2.4.

For CCOCCNC(=O)c1nc(N[C@H]2CCCC[C@H]2NC(=N)N)c2cc(C)ccc2n1.Cl.Cl [Comparative control C, 4-[((1S,2R)-2-{[amino(imino)methyl]amino}cyclohexyl)amino]-N-(2-ethoxyethyl)-6-methylquinazoline-2-carboxamide dihydrochloride, reference compound], the “Simple primary skin irritation index” value (Rabbits; female, Kbs: JW, 24 h) was 2.3.

For COCCCNC(=O)c1nc(N[C@H]2CCCC[C@H]2NC(=N)N)c2cc(C)ccc2n1.Cl.Cl [Comparative control D, 4-[((1S,2R)-2-{[amino(imino)methyl]amino}cyclohexyl)amino]-N-(3-methoxypropyl)-6-methylquinazoline-2-carboxamide dihydrochloride, reference compound], the “Simple primary skin irritation index” value (Rabbits; female, Kbs: JW, 24 h) was 2.0.

Cc1ccc2nc(C(=O)NC(C)C)nc(N[C@H]3CCCC[C@H]3NC(=N)N)c2c1.Cl.Cl [Comparative control E, 4-[((1S,2R)-2-{[amino(imino)methyl]amino}cyclohexyl)amino]-N-isopropyl-6-methylquinazoline-2-carboxamide dihydrochloride, reference compound] was tested, and the “Simple primary skin irritation index” value (Rabbits; female, Kbs: JW, 24 h) was 3.6.

In the case of COCCNC(=O)c1nc(N[C@H]2CCCC[C@H]2NC(=N)N)c2cc(C)ccc2n1.Cl.Cl [Comparative control F, 4-[((1S,2R)-2-{[amino(imino)methyl]amino}cyclohexyl)amino]-N-(2-methoxyethyl)-6-methylquinazoline-2-carboxamide dihydrochloride, reference compound], the “Simple primary skin irritation index” value (Rabbits; female, Kbs: JW, 24 h) is reported as 2.2.

For COCCNC(=O)c1nc(N[C@H]2CCCC[C@H]2NC(C)=N)c2cc(C)ccc2n1.Cl.Cl [Example 1, 4-{[(1S,2R)-2-(ethanimidoylamino)cyclohexyl]amino}-N-(2-methoxyethyl)-6-methylquinazolin-2-carboxamide dihydrochloride], the “Simple primary skin irritation index” value (Rabbits; female, Kbs: JW, 24 h) was 0.3, the “Average number of scratching behavior” value (Mice [1]; [3]) was 57.8 and the Change in behavior (Mice [2]; 10 mg/kg) was “No obvious change”.

In the case of COC(C)(C)C(=N)N[C@@H]1CCCC[C@@H]1Nc1nc(C(=O)NCC(C)(C)C)nc2ccc(C)cc12.Cl.Cl [Example 19, N-(2,2-dimethylpropyl)-4-({(1S,2R)-2-[(2-methoxy-2-methylpropanimidoyl)amino]cyclohexyl}amino)-6-methylquinazolin-2-carboxamide dihydrochloride], the “Simple primary skin irritation index” value (Rabbits; female, Kbs: JW, 24 h) is reported as 0.4 and the “Average number of scratching behavior” value (Mice [1]; [3]) is reported as 69.2.

In the case of COCCCNC(=O)c1nc(N[C@H]2CCCC[C@H]2NC(=N)CCOC)c2cc(C)ccc2n1.Cl.Cl [Example 35, 4-({(1S,2R)-2-[(3-methoxypropanimidoyl)amino]cyclohexyl}amino)-N-(3-methoxypropyl)-6-methylquinazolin-2-carboxamide dihydrochloride], the “Simple primary skin irritation index” value (Rabbits; female, Kbs: JW, 24 h) is reported as 1.5 and the “Average number of scratching behavior” value (Mice [1]; [3]) is reported as 69.0.

In the case of Cc1ccc2nc(C(=O)NC(C)C)nc(N[C@H]3CCCC[C@H]3NC(=N)CCO)c2c1.Cl.Cl [Example 58, 4-({(1S,2R)-2-[(3-hydroxypropanimidoyl)amino]cyclohexyl}amino)-N-isopropyl-6-methylquinazolin-2-carboxamide dihydrochloride], the “Simple primary skin irritation index” value (Rabbits; female, Kbs: JW, 24 h) is reported as 0.4, the “Average number of scratching behavior” value (Mice [1]; [3]) is reported as 55.5 and the Change in behavior (Mice [2]; 10 mg/kg) is reported as “No obvious change”.

For COCCCNC(=O)c1nc(N[C@H]2CCCC[C@H]2NC(=N)CCO)c2cc(C)ccc2n1.Cl.Cl [Example 59, 4-({(1S,2R)-2-[(3-hydroxypropanimidoyl)amino]cyclohexyl}amino)-N-(3-methoxypropyl)-6-methylquinazolin-2-carboxamide dihydrochloride], the “Simple primary skin irritation index” value (Rabbits; female, Kbs: JW, 24 h) was 0.2 and the “Average number of scratching behavior” value (Mice [1]; [3]) was 57.8.

In the case of Cc1ccc2nc(C(=O)NCC(C)C)nc(N[C@H]3CCCC[C@H]3NC(=N)C(C)(C)O)c2c1.Cl.Cl [Example 60, 4-({(1S,2R)-2-[(2-hydroxy-2-methylpropanimidoyl)amino]cyclohexyl}amino)-N-isobutyl-6-methylquinazolin-2-carboxamide dihydrochloride], the “Simple primary skin irritation index” value (Rabbits; female, Kbs: JW, 24 h) is reported as 1.0, the “Average number of scratching behavior” value (Mice [1]; [4]) is reported as 64.0 and the Change in behavior (Mice [2]; 5 mg/kg) is reported as “No obvious change”.

In the case of CCOCCNC(=O)c1nc(N[C@H]2CCCC[C@H]2NC(=N)CCO)c2cc(C)ccc2n1.Cl.Cl [Example 61, N-(2-ethoxyethyl)-4-({(1S,2R)-2-[(3-hydroxypropanimidoyl)amino]cyclohexyl}amino)-6-methylquinazolin-2-carboxamide dihydrochloride], the “Simple primary skin irritation index” value (Rabbits; female, Kbs: JW, 24 h) is reported as 0.4.

For COCCNC(=O)c1nc(N[C@H]2CCCC[C@H]2NC(=N)COC)c2cc(C)ccc2n1.Cl.Cl [Example 91, 4-({(1S,2R)-2-[(2-methoxyethanimidoyl)amino]cyclohexyl}amino)-N-(2-methoxyethyl)-6-methylquinazolin-2-carboxamide dihydrochloride], the “Simple primary skin irritation index” value (Rabbits; female, Kbs: JW, 24 h) was 0.5 and the “Average number of scratching behavior” value (Mice [1]; [3]) was 70.5.

For COCCCNC(=O)c1nc(N[C@H]2CCCC[C@H]2NC(C)=N)c2cc(C)ccc2n1.Cl.Cl [Example 92, 4-{[(1S,2R)-2-(ethanimidoylamino)cyclohexyl]amino}-N-(3-methoxypropyl)-6-methylquinazolin-2-carboxamide dihydrochloride], the “Simple primary skin irritation index” value (Rabbits; female, Kbs: JW, 24 h) was 0.0, the “Average number of scratching behavior” value (Mice [1]; oral administration, dose 30 mg/kg, 20 minutes prior to serotonin) was 141.0 and the “Average number of scratching behavior” value (Mice [1]; [3]) was 76.3. The Change in behavior (Mice [2]; 10 mg/kg) was “No obvious change”.

In the case of COCCCNC(=O)c1nc(N[C@H]2CCCC[C@H]2NC(=N)COC)c2cc(C)ccc2n1.Cl.Cl [Example 93, 4-({(1S,2R)-2-[(2-methoxyethanimidoyl)amino]cyclohexyl}amino)-N-(3-methoxypropyl)-6-methylquinazolin-2-carboxamide dihydrochloride], the “Simple primary skin irritation index” value (Rabbits; female, Kbs: JW, 24 h) is reported as 0.2.

CCOCCNC(=O)c1nc(N[C@H]2CCCC[C@H]2NC(C)=N)c2cc(C)ccc2n1.Cl.Cl [Example 94, 4-{[(1S,2R)-2-(ethanimidoylamino)cyclohexyl]amino}-N-(2-ethoxyethyl)-6-methylquinazolin-2-carboxamide dihydrochloride] was tested, and the “Simple primary skin irritation index” value (Rabbits; female, Kbs: JW, 24 h) was 1.0.

For CCOCCNC(=O)c1nc(N[C@H]2CCCC[C@H]2NC(=N)COC)c2cc(C)ccc2n1.Cl.Cl [Example 95, N-(2-ethoxyethyl)-4-({(1S,2R)-2-[(2-methoxyethanimidoyl)amino]cyclohexyl}amino)-6-methylquinazolin-2-carboxamide dihydrochloride], the “Simple primary skin irritation index” value (Rabbits; female, Kbs: JW, 24 h) was 0.7.

For CC(=N)N[C@@H]1CCCC[C@@H]1Nc1nc(C(=O)NC(C)C)nc2ccc(C)cc12.Cl.Cl [Example 101, 4-{[(1S,2R)-2-(ethanimidoylamino)cyclohexyl]amino}-N-isopropyl-6-methylquinazolin-2-carboxamide dihydrochloride], the “Simple primary skin irritation index” value (Rabbits; female, Kbs: JW, 24 h) was 2.6, the “Average number of scratching behavior” value (Mice [1]; [3]) was 56.8 and the Change in behavior (Mice [2]; 10 mg/kg) was “No obvious change”.

COCCNC(=O)c1nc(N[C@H]2CCCC[C@H]2NC(N)=NOC)c2cc(C)ccc2n1.Cl.Cl [Example 208, 4-[((1S,2R)-2-{[amino(methoxyimino)methyl]amino}cyclohexyl)amino]-N-(2-methoxyethyl)-6-methylquinazolin-2-carboxamide dihydrochloride] was tested, and the “Simple primary skin irritation index” value (Rabbits; female, Kbs: JW, 24 h) was 0.2, the “Average number of scratching behavior” value (Mice [1]; [4]) was 53.8 and the “Average number of scratching behavior” value (Mice [1]; [3]) was 81.0. For the same molecule, the Change in behavior (Mice [2]; 20 mg/kg) was “No obvious change”.

With CON(C)C(=N)N[C@@H]1CCCC[C@@H]1Nc1nc(C(=O)NCC(C)C)nc2ccc(C)cc12.Cl.Cl [Example 236, 4-{[(1S,2R)-2-({imino[methoxy(methyl)amino]methyl}amino)cyclohexyl]amino}-N-isobutyl-6-methylquinazolin-2-carboxamide dihydrochloride] the “Simple primary skin irritation index” value (Rabbits; female, Kbs: JW, 24 h) was 1.6.

With COCCNC(=O)c1nc(N[C@H]2CCCC[C@H]2NC(N)=NOC)c2cc(C)ccc2n1.COCCNC(=O)c1nc(N[C@H]2CCCC[C@H]2NC(N)=NOC)c2cc(C)ccc2n1.O=S(=O)(O)O [Example 248, 4-[((1S,2R)-2-{[amino(methoxyimino)methyl]amino}cyclohexyl)amino]-N-(2-methoxyethyl)-6-methylquinazolin-2-carboxamide 1/2 sulfate] the “Simple primary skin irritation index” value (Rabbits) was 0.8.
